SMILES strings stand for the structures. pIC50: −log10 of the molar value. Several values for one entry are separate records, joined by “and”; a condition that tells them apart may be missing. Identical values can stand only once.

This note sets out measurements from BindingDB's records for doi:10.1186/s12858-015-0048-3 (Texas Wesleyan University, 2015).

The target of the test is T1, Dual specificity protein phosphatase 5 [180-384] (Homo sapiens, UniProt Q16690).
T1 construct: 180-384
T1 sequence (Q16690 whole entry): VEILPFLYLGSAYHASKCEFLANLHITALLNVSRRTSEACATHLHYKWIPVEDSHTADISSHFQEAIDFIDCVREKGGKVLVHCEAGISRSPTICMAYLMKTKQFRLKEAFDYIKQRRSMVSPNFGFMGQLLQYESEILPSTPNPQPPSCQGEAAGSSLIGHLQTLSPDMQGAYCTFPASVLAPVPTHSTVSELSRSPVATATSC
The experiment in a line: p-NPP Assay. As to conditions: 25 °C. On the procedure:
For the 96-well plate validation assay, sodium orthovanadate (Sigma Aldrich) was utilized as a positive control for inhibition [Swarup et al., Biochem. Biophys. Res. Commun., 107:1104-9] at a final concentration of 10 μM, to completely block DUSP5(WT) enzymatic activity. All plate assays were performed in standard 96-well clearbottom plates (Thermo Scientific Nunc) with a total assay volume of 200 μL, using a SpectraMax M5 Microplate Reader (Molecular Devices). The plate validation assay was performed with replicate columns of positive control wells, negative control wells and blank wells. Blank columns contained only buffer and pNPP. Negative control (uninhibited) contained buffer, pNPP, and DUSP5PD(WT); and, positive control contained the same components,but also contained 10 μM sodium orthovanadate. The plate was then shaken and allowed to equilibrate in the spectrophotometer at 25 °C for 30 min. After incubation, 4 μL of a 50 μM enzyme stock was dispensed into appropriate wells utilizing a single-channel pipette. This produced a final enzyme concentration of1 μM. Before a read was taken, the plate was shaken for five seconds. The initial rate for the DUSP5PD(WT) reaction was linear for approximately 90 min;and, the plate was kept in the spectrophotometer at 25 °C for an additional 80 min after the kinetic read. The endpoint reading was subsequently taken at 90 min after initiation of reaction.
In the case of `O=S(=O)(O)c1ccc2[nH]c3c(S(=O)(=O)O)cc(S(=O)(=O)O)cc3c2c1` [RR505], the pIC50 (usually the IC50 on a negative log10 scale, so that one unit is a factor of ten) was 2.29 and 1.59.
As for `Cc1ccc(C(=O)Nc2ccc(S(=O)(=O)O)c3cc(S(=O)(=O)O)cc(S(=O)(=O)O)c23)cc1NC(=O)c1cccc(NC(=O)Nc2cccc(C(=O)Nc3cc(C(=O)Nc4ccc(S(=O)(=O)O)c5cc(S(=O)(=O)O)cc(S(=O)(=O)O)c45)ccc3C)c2)c1` [Suramin hexasodium], the pIC50 was 4.36.
As for `O=S(=O)(O)c1ccc2c(S(=O)(=O)O)cc(S(=O)(=O)O)cc2c1` [naphthalene-1,3,6-trisulfonate(3-)], the figure is 2.19.
